Source: the supplement of paper PMC10307832

Assays:
Assay in all cases: relative viability (nuclei count vs DMSO), 5 days (fraction); higher = more cells survive
[1] = compound: CC1=C(N=C(N=C1N)[C@H](CC(=O)N)NC[C@@H](C(=O)N)N)C(=O)N[C@@H]([C@H](C2=CN=CN2)OC3C(C(C(C(O3)CO)O)O)OC4C(C(C(C(O4)CO)O)OC(=O)N)O)C(=O)N[C@H](C)[C@H]([C@H](C)C(=O)N[C@@H]([C@@H](C)O)C(=O)NCCC5=NC(=CS5)C6=NC(=CS6)C(=O)NCCC[S+](C)C)O [Bleomycin] + CC1(C)CCC(c2ccc(Cl)cc2)=C(CN2CCN(c3ccc(C(=O)NS(=O)(=O)c4ccc(N[C@H](CCN5CCOCC5)CSc5ccccc5)c(S(=O)(=O)C(F)(F)F)c4)cc3)CC2)C1 [Navitoclax] (partner 0.5 µM); settings: main component drawn
Procedure, shortened: (§1)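 Relative viability divides the nuclei count in treated wells by that in vehicle wells. Lung cancer cell lines were seeded in 1536-well plates, dosed by pin tool the next day, and fixed and stained after 5 days in one step with final 0.05% Triton X-100, 1% formaldehyde and 1 ug/ml Hoechst. Dosing was a single drug or a fixed anchor-drug dose plus five library-drug doses (not always all listed) in √10 steps, and values are medians of duplicate plates imaged at 4×.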

[2] = compound: COc1cc([C@@H]2c3cc4c(cc3[C@@H](O[C@@H]3O[C@@H]5CO[C@@H](C)O[C@H]5[C@H](O)[C@H]3O)[C@H]3COC(=O)[C@H]23)OCO4)cc(OC)c1O [Etoposide] + C[C@@H](Oc1cc(-c2cnn(C3CCNCC3)c2)cnc1N)c1c(Cl)ccc(F)c1Cl [Crizotinib] (partner 1 µM)
Procedure, shortened: as §1

[3] = compound: CC1=C(N=C(N=C1N)[C@H](CC(=O)N)NC[C@@H](C(=O)N)N)C(=O)N[C@@H]([C@H](C2=CN=CN2)OC3C(C(C(C(O3)CO)O)O)OC4C(C(C(C(O4)CO)O)OC(=O)N)O)C(=O)N[C@H](C)[C@H]([C@H](C)C(=O)N[C@@H]([C@@H](C)O)C(=O)NCCC5=NC(=CS5)C6=NC(=CS6)C(=O)NCCC[S+](C)C)O [Bleomycin] + CC(=O)c1c(C)c2cnc(Nc3ccc(N4CCNCC4)cn3)nc2n(C2CCCC2)c1=O [Palbociclib] (partner 0.5 µM); settings: main component drawn
Procedure, shortened: as §1

[4] = compound: COc1cc([C@@H]2c3cc4c(cc3[C@@H](O[C@@H]3O[C@@H]5CO[C@@H](C)O[C@H]5[C@H](O)[C@H]3O)[C@H]3COC(=O)[C@H]23)OCO4)cc(OC)c1O [Etoposide] + C[C@]1(O)C[C@@H](c2nc(-c3ccc4ccc(-c5ccccc5)nc4c3)c3c(N)nccn32)C1 [Linsitinib] (partner 1 µM)
Procedure, shortened: as §1

HCC-827
relative viability ([1]; first compound 0.01 µM): 0.986
relative viability ([1]; first compound 0.03162 µM): 1.06
relative viability ([1]; first compound 0.1 µM): 0.991
relative viability ([1]; first compound 0.3162 µM): 0.723
relative viability ([1]; first compound 1 µM): 0.362
relative viability ([2]; first compound 0.01 µM): 0.879
relative viability ([2]; first compound 0.03162 µM): 0.941
relative viability ([2]; first compound 0.1 µM): 0.662
relative viability ([2]; first compound 0.3162 µM): 0.394
relative viability ([2]; first compound 1 µM): 0.228
relative viability ([3]; first compound 0.01 µM): 0.46
relative viability ([3]; first compound 0.1 µM): 0.611
relative viability ([3]; first compound 0.3162 µM): 0.243
relative viability ([3]; first compound 1 µM): 0.18
relative viability ([4]; first compound 0.01 µM): 0.983
relative viability ([4]; first compound 0.03162 µM): 0.919
relative viability ([4]; first compound 0.1 µM): 0.931
relative viability ([4]; first compound 0.3162 µM): 0.659
relative viability ([4]; first compound 1 µM): 0.33

HOP-62
relative viability ([1]; first compound 0.01 µM): 0.367
relative viability ([1]; first compound 0.03162 µM): 0.405
relative viability ([1]; first compound 0.1 µM): 0.118
relative viability ([1]; first compound 0.3162 µM): 0.0652
relative viability ([1]; first compound 1 µM): 0.0435
relative viability ([2]; first compound 0.01 µM): 0.96
relative viability ([2]; first compound 0.03162 µM): 0.998
relative viability ([2]; first compound 0.1 µM): 0.799
relative viability ([2]; first compound 0.3162 µM): 0.681
relative viability ([2]; first compound 1 µM): 0.157
relative viability ([3]; first compound 0.01 µM): 0.249
relative viability ([3]; first compound 0.03162 µM): 0.259
relative viability ([3]; first compound 0.1 µM): 0.285
relative viability ([3]; first compound 0.3162 µM): 0.167
relative viability ([3]; first compound 1 µM): 0.125
relative viability ([4]; first compound 0.01 µM): 0.963
relative viability ([4]; first compound 0.03162 µM): 1.05
relative viability ([4]; first compound 0.1 µM): 0.657
relative viability ([4]; first compound 0.3162 µM): 0.631
relative viability ([4]; first compound 1 µM): 0.269

LC-2-ad
relative viability ([1]; first compound 0.01 µM): 0.333
relative viability ([1]; first compound 0.03162 µM): 0.364
relative viability ([1]; first compound 0.1 µM): 0.24
relative viability ([1]; first compound 0.3162 µM): 0.123
relative viability ([1]; first compound 1 µM): 0.13
relative viability ([2]; first compound 0.01 µM): 0.568
relative viability ([2]; first compound 0.03162 µM): 0.45
relative viability ([2]; first compound 0.1 µM): 0.434
relative viability ([2]; first compound 0.3162 µM): 0.332
relative viability ([2]; first compound 1 µM): 0.203
relative viability ([3]; first compound 0.01 µM): 0.454
relative viability ([3]; first compound 0.03162 µM): 0.541
relative viability ([3]; first compound 0.1 µM): 0.421
relative viability ([3]; first compound 0.3162 µM): 0.3
relative viability ([3]; first compound 1 µM): 0.31
relative viability ([4]; first compound 0.01 µM): 0.809
relative viability ([4]; first compound 0.03162 µM): 0.976
relative viability ([4]; first compound 0.1 µM): 0.863
relative viability ([4]; first compound 0.3162 µM): 0.624
relative viability ([4]; first compound 1 µM): 0.248

LCLC-97TM1
relative viability ([1]; first compound 0.01 µM): 0.191
relative viability ([1]; first compound 0.03162 µM): 0.197
relative viability ([1]; first compound 0.1 µM): 0.102
relative viability ([1]; first compound 0.3162 µM): 0.152
relative viability ([1]; first compound 1 µM): 0.1
relative viability ([2]; first compound 0.03162 µM): 0.382
relative viability ([2]; first compound 0.1 µM): 0.241
relative viability ([2]; first compound 0.3162 µM): 0.155
relative viability ([2]; first compound 1 µM): 0.111
relative viability ([3]; first compound 0.01 µM): 0.154
relative viability ([3]; first compound 0.03162 µM): 0.211
relative viability ([3]; first compound 0.1 µM): 0.157
relative viability ([3]; first compound 0.3162 µM): 0.112
relative viability ([3]; first compound 1 µM): 0.101
relative viability ([4]; first compound 0.03162 µM): 0.193
relative viability ([4]; first compound 0.1 µM): 0.122
relative viability ([4]; first compound 0.3162 µM): 0.151
relative viability ([4]; first compound 1 µM): 0.1

LK-2
relative viability ([1]; first compound 0.01 µM): 0.478
relative viability ([1]; first compound 0.03162 µM): 0.537
relative viability ([1]; first compound 0.1 µM): 0.415
relative viability ([1]; first compound 0.3162 µM): 0.214
relative viability ([1]; first compound 1 µM): 0.239
relative viability ([2]; first compound 0.01 µM): 0.264
relative viability ([2]; first compound 0.03162 µM): 0.265
relative viability ([2]; first compound 0.1 µM): 0.263
relative viability ([2]; first compound 0.3162 µM): 0.219
relative viability ([2]; first compound 1 µM): 0.23
relative viability ([3]; first compound 0.01 µM): 0.45
relative viability ([3]; first compound 0.03162 µM): 0.299
relative viability ([3]; first compound 0.1 µM): 0.418
relative viability ([3]; first compound 0.3162 µM): 0.15
relative viability ([3]; first compound 1 µM): 0.134
relative viability ([4]; first compound 0.01 µM): 0.522
relative viability ([4]; first compound 0.03162 µM): 0.442
relative viability ([4]; first compound 0.1 µM): 0.295
relative viability ([4]; first compound 0.3162 µM): 0.442
relative viability ([4]; first compound 1 µM): 0.18

LOU-NH91
relative viability ([1]; first compound 0.01 µM): 0.553
relative viability ([1]; first compound 0.03162 µM): 0.437
relative viability ([1]; first compound 0.1 µM): 0.362
relative viability ([1]; first compound 0.3162 µM): 0.266
relative viability ([1]; first compound 1 µM): 0.199
relative viability ([2]; first compound 0.01 µM): 0.74
relative viability ([2]; first compound 0.03162 µM): 0.767
relative viability ([2]; first compound 0.1 µM): 0.701
relative viability ([2]; first compound 0.3162 µM): 0.632
relative viability ([2]; first compound 1 µM): 0.438
relative viability ([3]; first compound 0.01 µM): 0.476
relative viability ([3]; first compound 0.03162 µM): 0.449
relative viability ([3]; first compound 0.1 µM): 0.428
relative viability ([3]; first compound 0.3162 µM): 0.35
relative viability ([3]; first compound 1 µM): 0.364
relative viability ([4]; first compound 0.01 µM): 0.892
relative viability ([4]; first compound 0.03162 µM): 0.943
relative viability ([4]; first compound 0.1 µM): 0.702
relative viability ([4]; first compound 0.3162 µM): 0.728
relative viability ([4]; first compound 1 µM): 0.538

LU99A
relative viability ([1]; first compound 0.01 µM): 0.622
relative viability ([1]; first compound 0.03162 µM): 0.491
relative viability ([1]; first compound 0.1 µM): 0.335
relative viability ([1]; first compound 0.3162 µM): 0.166
relative viability ([1]; first compound 1 µM): 0.147
relative viability ([2]; first compound 0.01 µM): 0.577
relative viability ([2]; first compound 0.03162 µM): 0.512
relative viability ([2]; first compound 0.1 µM): 0.388
relative viability ([2]; first compound 0.3162 µM): 0.288
relative viability ([2]; first compound 1 µM): 0.189
relative viability ([3]; first compound 0.01 µM): 0.329
relative viability ([3]; first compound 0.03162 µM): 0.405
relative viability ([3]; first compound 0.1 µM): 0.286
relative viability ([3]; first compound 0.3162 µM): 0.167
relative viability ([3]; first compound 1 µM): 0.126
relative viability ([4]; first compound 0.01 µM): 0.495
relative viability ([4]; first compound 0.03162 µM): 0.614
relative viability ([4]; first compound 0.1 µM): 0.333
relative viability ([4]; first compound 0.3162 µM): 0.264
relative viability ([4]; first compound 1 µM): 0.201

LXF-289
relative viability ([1]; first compound 0.01 µM): 0.877
relative viability ([1]; first compound 0.03162 µM): 0.879
relative viability ([1]; first compound 0.1 µM): 0.799
relative viability ([1]; first compound 0.3162 µM): 0.35
relative viability ([1]; first compound 1 µM): 0.179
relative viability ([2]; first compound 0.01 µM): 0.851
relative viability ([2]; first compound 0.03162 µM): 0.824
relative viability ([2]; first compound 0.1 µM): 0.836
relative viability ([2]; first compound 0.3162 µM): 0.511
relative viability ([2]; first compound 1 µM): 0.251
relative viability ([3]; first compound 0.01 µM): 0.58
relative viability ([3]; first compound 0.03162 µM): 0.571
relative viability ([3]; first compound 0.1 µM): 0.606
relative viability ([3]; first compound 0.3162 µM): 0.324
relative viability ([3]; first compound 1 µM): 0.221
relative viability ([4]; first compound 0.01 µM): 0.968
relative viability ([4]; first compound 0.03162 µM): 1.06
relative viability ([4]; first compound 0.1 µM): 1
relative viability ([4]; first compound 0.3162 µM): 0.703
relative viability ([4]; first compound 1 µM): 0.293
